In publication PMC10746543, “Design principles for cyclin K molecular glue degraders” (Nature Chemical Biology, 2023):
Values joined by “and” are separate entries in the source; they are usually repeats but may differ in a detail not shown here. Equal values may be shown once. Read-outs that look alike come from different tables or passages of the source.

What was measured:
CDK12–cyclin K and DDB1 = molecular target: T1, CDK12–cyclin K and DDB1 (Homo sapiens, UniProt Q16531+Q9NYV4, K965R); test: TR-FRET ternary complex formation assay (compound titration); assay type: binding
T1 construct: His6–CDK12 (a.a. 713–1,052); full-length or beta-propeller B domain deletion (ΔBPB: a.a. 396–705 deleted) constructs of His6–DDB1ΔBPB, StrepII–Avi–DDB1, or His6–Spy–DDB1; made in house; host or cells: Trichoplusia ni High Five insect cells (baculovirus)
Outline: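 Background fluorescence is reduced by reading 70 μs after excitation, and complex formation is followed as the 520:490 nm fluorescence ratio.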

[1] = test system: cyclin K–eGFP degradation reporter; test: Cyclin K reporter stability analysis (dual-color cyclin K–eGFP reporter); assay type: cell-based, human; conditions: Supplementary Table 2; HEK293T cycK-eGFP reporter, 5 h; read-out: Cellular assays DC50
Outline: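 Values reflect cyclin K–eGFP levels after a 5 h exposure, expressed as the green-to-red fluorescence ratio and scaled to three vehicle-treated controls. Measurements came from HEK293T–Cas9 reporter cells by flow cytometry.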

CDK9–cyclin T = molecular target: T2, CDK9–cyclin T (Homo sapiens, UniProt P50750); test: Lanthascreen kinase binding assay, CDK9; conditions: for Lanthascreen TR-FRET signal (raw ratio), sheet CDK9: duplicates
T2 construct: purchased Thermo Fisher
Experimental: (§1) Lanthascreen experiments were performed using commercially available reagents (Thermo Fisher) and according to the manufacturer’s instructions.

CDK2–cyclin A = molecular target: T3, CDK2–cyclin A (Homo sapiens, UniProt P24941); test: Lanthascreen kinase binding assay, CDK2; conditions: for Lanthascreen signal, sheet CDK2: raw replicates
T3 construct: purchased Thermo Fisher
Experimental: as §1

T2 sequence (P50750 whole entry): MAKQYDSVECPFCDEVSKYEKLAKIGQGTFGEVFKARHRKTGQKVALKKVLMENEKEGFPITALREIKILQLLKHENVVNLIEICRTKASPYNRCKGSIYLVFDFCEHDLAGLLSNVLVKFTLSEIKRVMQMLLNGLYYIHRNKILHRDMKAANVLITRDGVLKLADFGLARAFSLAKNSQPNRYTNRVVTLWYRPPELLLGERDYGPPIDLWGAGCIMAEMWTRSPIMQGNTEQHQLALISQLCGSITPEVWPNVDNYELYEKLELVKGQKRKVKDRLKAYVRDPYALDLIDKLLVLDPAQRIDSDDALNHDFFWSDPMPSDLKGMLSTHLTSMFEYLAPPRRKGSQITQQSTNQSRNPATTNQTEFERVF
T2 sequence (O60563 whole entry partner): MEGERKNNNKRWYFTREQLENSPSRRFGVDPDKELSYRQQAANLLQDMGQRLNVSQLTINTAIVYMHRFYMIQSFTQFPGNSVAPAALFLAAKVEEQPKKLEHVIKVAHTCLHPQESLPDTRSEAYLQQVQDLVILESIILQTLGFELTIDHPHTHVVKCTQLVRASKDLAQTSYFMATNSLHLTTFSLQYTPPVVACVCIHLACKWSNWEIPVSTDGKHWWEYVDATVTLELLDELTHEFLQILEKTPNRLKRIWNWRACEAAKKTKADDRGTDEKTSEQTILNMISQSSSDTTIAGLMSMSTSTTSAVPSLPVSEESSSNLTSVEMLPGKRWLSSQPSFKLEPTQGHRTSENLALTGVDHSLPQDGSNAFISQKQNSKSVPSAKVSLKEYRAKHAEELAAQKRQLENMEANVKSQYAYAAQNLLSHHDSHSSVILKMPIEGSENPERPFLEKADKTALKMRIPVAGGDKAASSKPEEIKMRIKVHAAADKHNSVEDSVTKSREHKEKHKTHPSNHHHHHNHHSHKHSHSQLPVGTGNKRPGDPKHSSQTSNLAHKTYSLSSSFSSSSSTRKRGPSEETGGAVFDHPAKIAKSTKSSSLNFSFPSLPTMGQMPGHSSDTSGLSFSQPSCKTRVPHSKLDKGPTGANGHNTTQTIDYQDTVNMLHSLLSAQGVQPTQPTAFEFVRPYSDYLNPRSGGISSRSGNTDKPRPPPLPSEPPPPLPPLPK
T1 sequence (Q9NYV4 713-1052 K965R): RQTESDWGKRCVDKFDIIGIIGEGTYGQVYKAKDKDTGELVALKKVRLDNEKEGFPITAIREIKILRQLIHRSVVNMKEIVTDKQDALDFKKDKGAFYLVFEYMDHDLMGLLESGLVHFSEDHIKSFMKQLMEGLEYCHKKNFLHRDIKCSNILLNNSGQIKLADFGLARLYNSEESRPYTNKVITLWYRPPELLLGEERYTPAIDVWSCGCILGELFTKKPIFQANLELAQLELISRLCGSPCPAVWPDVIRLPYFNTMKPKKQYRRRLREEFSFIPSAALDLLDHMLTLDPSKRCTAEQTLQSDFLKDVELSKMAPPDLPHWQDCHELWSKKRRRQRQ
T1 sequence (O75909 1-267 partner): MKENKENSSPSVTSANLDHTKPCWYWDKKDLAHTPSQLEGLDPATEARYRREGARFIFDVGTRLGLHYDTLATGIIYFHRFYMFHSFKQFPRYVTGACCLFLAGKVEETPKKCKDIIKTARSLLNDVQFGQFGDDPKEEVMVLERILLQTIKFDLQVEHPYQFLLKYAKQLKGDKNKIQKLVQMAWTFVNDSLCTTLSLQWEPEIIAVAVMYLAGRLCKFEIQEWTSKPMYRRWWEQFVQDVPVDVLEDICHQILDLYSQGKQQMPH
T1 sequence (Q16531 whole entry): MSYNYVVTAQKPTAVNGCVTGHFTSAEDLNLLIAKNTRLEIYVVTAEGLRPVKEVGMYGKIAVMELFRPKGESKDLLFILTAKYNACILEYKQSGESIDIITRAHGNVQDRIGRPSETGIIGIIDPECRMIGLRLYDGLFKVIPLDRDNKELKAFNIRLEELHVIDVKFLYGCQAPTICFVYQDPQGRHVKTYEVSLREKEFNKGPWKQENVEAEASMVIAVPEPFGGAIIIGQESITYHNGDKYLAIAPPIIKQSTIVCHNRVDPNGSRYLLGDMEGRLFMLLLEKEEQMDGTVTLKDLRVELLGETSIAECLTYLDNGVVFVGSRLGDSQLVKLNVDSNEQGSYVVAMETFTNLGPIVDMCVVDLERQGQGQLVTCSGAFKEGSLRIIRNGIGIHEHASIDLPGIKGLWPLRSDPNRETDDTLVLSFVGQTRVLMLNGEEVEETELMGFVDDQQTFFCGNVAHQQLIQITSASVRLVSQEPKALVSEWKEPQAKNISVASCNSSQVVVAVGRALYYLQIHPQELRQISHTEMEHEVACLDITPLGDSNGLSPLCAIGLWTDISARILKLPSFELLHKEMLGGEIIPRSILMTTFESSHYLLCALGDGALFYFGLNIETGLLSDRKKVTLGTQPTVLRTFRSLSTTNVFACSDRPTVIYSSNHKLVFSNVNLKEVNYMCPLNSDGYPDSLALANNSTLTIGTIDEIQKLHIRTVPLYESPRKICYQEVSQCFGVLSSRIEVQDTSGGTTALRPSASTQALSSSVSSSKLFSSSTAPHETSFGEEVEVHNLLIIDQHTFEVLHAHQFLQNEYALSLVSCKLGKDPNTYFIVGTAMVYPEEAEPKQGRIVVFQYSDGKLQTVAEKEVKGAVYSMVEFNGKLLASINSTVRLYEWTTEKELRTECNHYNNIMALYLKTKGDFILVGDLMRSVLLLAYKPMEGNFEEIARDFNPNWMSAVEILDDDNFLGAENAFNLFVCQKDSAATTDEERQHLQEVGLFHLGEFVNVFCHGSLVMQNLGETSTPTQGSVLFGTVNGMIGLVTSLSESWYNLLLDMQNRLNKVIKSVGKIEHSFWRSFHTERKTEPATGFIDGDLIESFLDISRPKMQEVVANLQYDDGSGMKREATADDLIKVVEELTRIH

Compound: O=C(CSc1nc2ccccc2[nH]1)Nc1ccc(Cl)cn1 [dCeMM3]
- EC50 (CDK12–cyclin K and DDB1; Supplementary Table 2, read-out: TR-FRET EC50 TR-FRET): 0.263 µM
- TR-FRET signal (CDK12–cyclin K and DDB1; compound concentration 0.468 nM): 0.3108 and 0.3043
- TR-FRET signal (CDK12–cyclin K and DDB1; compound concentration 2.16 nM): 0.3247 and 0.3252
- TR-FRET signal (CDK12–cyclin K and DDB1; compound concentration 3.6 nM): 0.3605 and 0.3572
- TR-FRET signal (CDK12–cyclin K and DDB1; compound concentration 4.68 nM): 0.1862 and 0.1908
- TR-FRET signal (CDK12–cyclin K and DDB1; compound concentration 7.92001 nM): 0.4123 and 0.4112
- TR-FRET signal (CDK12–cyclin K and DDB1; compound concentration 15.84 nM): 0.5374 and 0.5369
- TR-FRET signal (CDK12–cyclin K and DDB1; compound concentration 21.6 nM): 0.3061 and 0.3287
- TR-FRET signal (CDK12–cyclin K and DDB1; compound concentration 30.96 nM): 0.7082 and 0.7121
- TR-FRET signal (CDK12–cyclin K and DDB1; compound concentration 36 nM): 0.5639 and 0.6148
- TR-FRET signal (CDK12–cyclin K and DDB1; compound concentration 62.6401 nM): 1.02 and 1.082
- TR-FRET signal (CDK12–cyclin K and DDB1; compound concentration 79.2001 nM): 0.9671 and 1.036
- TR-FRET signal (CDK12–cyclin K and DDB1; compound concentration 125.28 nM): 1.467 and 1.538
- TR-FRET signal (CDK12–cyclin K and DDB1; compound concentration 158.4 nM): 1.482 and 1.527
- TR-FRET signal (CDK12–cyclin K and DDB1; compound concentration 244.8 nM): 2.062 and 2.196
- TR-FRET signal (CDK12–cyclin K and DDB1; compound concentration 309.6 nM): 2.068 and 2.079
- TR-FRET signal (CDK12–cyclin K and DDB1; compound concentration 626.401 nM): 2.602 and 2.623
- TR-FRET signal (CDK12–cyclin K and DDB1; compound concentration 993.601 nM): 3.096 and 3.149
- TR-FRET signal (CDK12–cyclin K and DDB1; compound concentration 1252.8 nM): 3.107 and 3.1711
- TR-FRET signal (CDK12–cyclin K and DDB1; compound concentration 2001.6 nM): 3.3098 and 3.397
- TR-FRET signal (CDK12–cyclin K and DDB1; compound concentration 2448 nM): 3.437 and 3.468
- TR-FRET signal (CDK12–cyclin K and DDB1; compound concentration 9936.01 nM): 3.722 and 3.727
- TR-FRET signal (CDK12–cyclin K and DDB1; compound concentration 20016 nM): 3.796 and 3.749
- EC50 (CDK12–cyclin K and DDB1; in vitro complex formation, 50 nM CDK12–cyclin K, 100 nM DDB1, text and figures, read-out: TR-FRET EC50): 0.263 ± 0.013 µM
- EC50 (CDK12–cyclin K and DDB1; sheet MOESM7, read-out: log TR-FRET EC50 (converted)): 0.263 µM
- DC50 [1]: > 10 µM
- IC50 (CDK9–cyclin T; Supplementary Table 2, read-out: Lanthascreen IC50 [nM] CDK9): 3020 nM
- Lanthascreen TR-FRET signal (raw ratio), sheet CDK9 (CDK9–cyclin T; compound 0.038147 nM, second titration set (r13)): 0.01294 and 0.01365
- Lanthascreen TR-FRET signal (raw ratio), sheet CDK9 (CDK9–cyclin T; compound 0.152588 nM, second titration set (r13)): 0.0141 and 0.01339
- Lanthascreen TR-FRET signal (raw ratio), sheet CDK9 (CDK9–cyclin T; compound 0.610352 nM, second titration set (r13)): 0.0143 and 0.01462
- Lanthascreen TR-FRET signal (raw ratio), sheet CDK9 (CDK9–cyclin T; compound 1.02544 nM, first titration set (r1)): 0.01545 and 0.0134
- Lanthascreen TR-FRET signal (raw ratio), sheet CDK9 (CDK9–cyclin T; compound 3.15521 nM, first titration set (r1)): 0.01353 and 0.01504
- Lanthascreen TR-FRET signal (raw ratio), sheet CDK9 (CDK9–cyclin T; compound 9.46563 nM, first titration set (r1)): 0.01222 and 0.01325
- Lanthascreen TR-FRET signal (raw ratio), sheet CDK9 (CDK9–cyclin T; compound 9.76563 nM, second titration set (r13)): 0.01396 and 0.01385
- Lanthascreen TR-FRET signal (raw ratio), sheet CDK9 (CDK9–cyclin T; compound 31.5521 nM, first titration set (r1)): 0.0135 and 0.01525
- Lanthascreen TR-FRET signal (raw ratio), sheet CDK9 (CDK9–cyclin T; compound 39.0625 nM, second titration set (r13)): 0.0129 and 0.01348
- Lanthascreen TR-FRET signal (raw ratio), sheet CDK9 (CDK9–cyclin T; compound 99.3891 nM, first titration set (r1)): 0.01289 and 0.01231
- Lanthascreen TR-FRET signal (raw ratio), sheet CDK9 (CDK9–cyclin T; compound 156.25 nM, second titration set (r13)): 0.01372 and 0.01352
- Lanthascreen TR-FRET signal (raw ratio), sheet CDK9 (CDK9–cyclin T; compound 315.521 nM, first titration set (r1)): 0.01199 and 0.01288
- Lanthascreen TR-FRET signal (raw ratio), sheet CDK9 (CDK9–cyclin T; compound 625 nM, second titration set (r13)): 0.01085 and 0.01132
- Lanthascreen TR-FRET signal (raw ratio), sheet CDK9 (CDK9–cyclin T; compound 2500 nM, second titration set (r13)): 0.0085 and 0.007435
- Lanthascreen TR-FRET signal (raw ratio), sheet CDK9 (CDK9–cyclin T; compound 3155.21 nM, first titration set (r1)): 0.006467 and 0.007084
- Lanthascreen TR-FRET signal (raw ratio), sheet CDK9 (CDK9–cyclin T; compound 10000 nM, second titration set (r13)): 0.00463 and 0.004475
- Lanthascreen TR-FRET signal (raw ratio), sheet CDK9 (CDK9–cyclin T; compound 10002 nM, first titration set (r1)): 0.0026 and 0.00423
- Lanthascreen signal, sheet CDK2 (CDK2–cyclin A; Compound 0.038147 nM, experiment r13-r23): 0.01285 and 0.01289
- Lanthascreen signal, sheet CDK2 (CDK2–cyclin A; Compound 0.152588 nM, experiment r13-r23): 0.01318 and 0.01321
- Lanthascreen signal, sheet CDK2 (CDK2–cyclin A; Compound 0.610352 nM, experiment r13-r23): 0.01258 and 0.01278
- Lanthascreen signal, sheet CDK2 (CDK2–cyclin A; Compound 1.02544 nM, experiment r1-r11): 0.008366 and 0.009193
- Lanthascreen signal, sheet CDK2 (CDK2–cyclin A; Compound 3.15521 nM, experiment r1-r11): 0.01197 and 0.009076
- Lanthascreen signal, sheet CDK2 (CDK2–cyclin A; Compound 9.46563 nM, experiment r1-r11): 0.01142 and 0.01118
- Lanthascreen signal, sheet CDK2 (CDK2–cyclin A; Compound 9.76563 nM, experiment r13-r23): 0.01261 and 0.01356
- Lanthascreen signal, sheet CDK2 (CDK2–cyclin A; Compound 31.5521 nM, experiment r1-r11): 0.01118 and 0.009287
- Lanthascreen signal, sheet CDK2 (CDK2–cyclin A; Compound 39.0625 nM, experiment r13-r23): 0.01377 and 0.01313
- Lanthascreen signal, sheet CDK2 (CDK2–cyclin A; Compound 99.3891 nM, experiment r1-r11): 0.01102 and 0.008633
- Lanthascreen signal, sheet CDK2 (CDK2–cyclin A; Compound 156.25 nM, experiment r13-r23): 0.01301 and 0.01263
- Lanthascreen signal, sheet CDK2 (CDK2–cyclin A; Compound 315.521 nM, experiment r1-r11): 0.01039 and 0.01098
- Lanthascreen signal, sheet CDK2 (CDK2–cyclin A; Compound 625 nM, experiment r13-r23): 0.01331 and 0.01224
- Lanthascreen signal, sheet CDK2 (CDK2–cyclin A; Compound 2500 nM, experiment r13-r23): 0.0123 and 0.01244
- Lanthascreen signal, sheet CDK2 (CDK2–cyclin A; Compound 3155.21 nM, experiment r1-r11): 0.0101 and 0.009174
- Lanthascreen signal, sheet CDK2 (CDK2–cyclin A; Compound 10000 nM, experiment r13-r23): 0.01049 and 0.00891
- Lanthascreen signal, sheet CDK2 (CDK2–cyclin A; Compound 10002 nM, experiment r1-r11): 0.008182 and 0.007001
- IC50 (CDK2–cyclin A; Lanthascreen, average, Extended Data Fig. 8, read-out: CDK2 IC50): > 10000 nM
- IC50 (CDK2–cyclin A; Supplementary Table 2, read-out: Lanthascreen IC50 [nM] CDK2): > 10000 nM
